Reference: ChEMBL document CHEMBL1201862, “PubChem BioAssay data set” (2004)
Calls of active or inactive are those of the source.

Assays:
Leucine aminopeptidase = target: T1, Leucine aminopeptidase (Plasmodium falciparum 3D7, UniProt Q8IL11); experiment: P. falciparum M17LAP inhibitors, primary screen, biochemical, fluorogenic H-Leu-NHMec substrate, 1536-well (AID 1619); type: functional
T1 sequence (Q8IL11 whole entry): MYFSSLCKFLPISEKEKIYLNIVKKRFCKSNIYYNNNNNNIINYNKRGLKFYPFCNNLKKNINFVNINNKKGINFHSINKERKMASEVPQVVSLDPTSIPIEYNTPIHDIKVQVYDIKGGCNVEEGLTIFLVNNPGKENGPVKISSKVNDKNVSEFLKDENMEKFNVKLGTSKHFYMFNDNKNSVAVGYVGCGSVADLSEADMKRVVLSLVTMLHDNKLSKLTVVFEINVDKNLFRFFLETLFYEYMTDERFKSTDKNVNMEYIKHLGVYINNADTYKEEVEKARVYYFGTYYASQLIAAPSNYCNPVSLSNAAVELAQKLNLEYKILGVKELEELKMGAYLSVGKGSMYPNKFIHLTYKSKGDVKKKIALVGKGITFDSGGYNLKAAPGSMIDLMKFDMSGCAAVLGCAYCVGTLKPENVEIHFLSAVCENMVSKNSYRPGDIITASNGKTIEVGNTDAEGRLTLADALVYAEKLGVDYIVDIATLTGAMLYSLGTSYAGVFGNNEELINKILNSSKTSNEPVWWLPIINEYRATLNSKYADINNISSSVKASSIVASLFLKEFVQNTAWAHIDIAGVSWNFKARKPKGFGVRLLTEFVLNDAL

[1] = tested on: Streptococcus sp. 'group A'; experiment: Streptococcus pyogenes SK(-)GAS viability under kanamycin – luminescence, BacTiterGlo, confirmation, counter-screen for streptokinase expression inhibitor project, dose response (AID 1900); type: functional, organism-based
Streptokinase A = target: T2, Streptokinase A (Streptococcus pyogenes serotype M1, UniProt P10520); experiment: viability-normalized secreted streptokinase activity reduction – plasminogen activation absorbance, OD405, dose response (AID 1914); type: functional, Streptococcus pyogenes M1 GAS;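 also: secreted streptokinase activity via plasminogen activation per viability signal from cell pellet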
T2 sequence (P10520 whole entry): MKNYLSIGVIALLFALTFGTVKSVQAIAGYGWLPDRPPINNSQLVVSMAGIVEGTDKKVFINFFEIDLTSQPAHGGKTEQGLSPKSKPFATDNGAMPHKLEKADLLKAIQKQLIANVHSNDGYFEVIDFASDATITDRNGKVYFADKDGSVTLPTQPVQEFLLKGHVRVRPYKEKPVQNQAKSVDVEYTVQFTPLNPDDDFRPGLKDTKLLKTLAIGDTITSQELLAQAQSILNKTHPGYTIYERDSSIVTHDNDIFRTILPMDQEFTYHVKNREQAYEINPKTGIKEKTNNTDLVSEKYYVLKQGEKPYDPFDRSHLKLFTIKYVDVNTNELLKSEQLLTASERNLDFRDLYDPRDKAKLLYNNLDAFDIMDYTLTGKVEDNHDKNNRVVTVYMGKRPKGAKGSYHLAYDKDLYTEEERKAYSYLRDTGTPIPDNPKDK

Streptococcus = experiment: GAS UMAA2166 growth inhibition – luminescence, BacTiterGlo, counter-screen for streptokinase expression inhibitor project, dose response (AID 1915); type: functional, organism-based;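 also: potency for reduction of bacterial viability or growth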
Cytochrome P450 3A4 [2] = target: T3, Cytochrome P450 3A4 (Homo sapiens, UniProt P08684); details: Potency
T3 sequence (P08684 whole entry): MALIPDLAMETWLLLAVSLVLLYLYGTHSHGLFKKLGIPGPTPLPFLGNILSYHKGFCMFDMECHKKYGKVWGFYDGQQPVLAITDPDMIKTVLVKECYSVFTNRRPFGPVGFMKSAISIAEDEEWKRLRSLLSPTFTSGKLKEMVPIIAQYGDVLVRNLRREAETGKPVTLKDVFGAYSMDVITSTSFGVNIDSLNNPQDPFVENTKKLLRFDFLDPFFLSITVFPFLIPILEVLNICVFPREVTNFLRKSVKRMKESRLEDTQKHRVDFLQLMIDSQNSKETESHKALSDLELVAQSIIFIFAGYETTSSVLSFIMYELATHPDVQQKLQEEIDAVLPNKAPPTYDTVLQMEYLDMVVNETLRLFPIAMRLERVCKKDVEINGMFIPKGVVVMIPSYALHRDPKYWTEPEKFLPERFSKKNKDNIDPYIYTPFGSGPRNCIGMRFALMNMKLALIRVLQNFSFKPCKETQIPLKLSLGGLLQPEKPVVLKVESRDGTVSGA

[3] = Trypanosoma cruzi growth suppression in host cells – NIH3T3 host cells, beta-gal luminescence, confirmation (AID 2044); type: functional, cell-based;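 also: intracellular parasites grown in NIH/3T3 mouse fibroblasts as host cells; luminescent beta-galactosidase reporter signal from transgenic T. cruzi replicating inside host cells; inhibitors lower the luminescence signal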
[4] = NIH3T3 cell viability loss – ATP luminescence, mouse fibroblasts, counter-screen, dose response (AID 2010); type: functional, cell-based;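 also: cells exposed to compound for about 90 hours before reading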
HEK293 = experiment: EBV LMP1 TES2 canonical NF-kB signalling blockers – cell-based, HEK293, luciferase, cherry-pick, dose response (AID 588343); type: functional; details: Homo sapiens
[5] = reduction of Shn3 3'UTR-driven luciferase in osteoblasts – cell-based, Clone20 osteoblasts, firefly luciferase, cherry-picked, dose response (AID 624132); type: functional;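 also: firefly luciferase luminescence from reporter carrying the Shn3 3'UTR in osteoblasts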
[6] = loss of viability in HepG2 cells – cell-based, CellTiter-Glo, cherry-picked, cytotoxicity control for Shn3 inhibitor project, dose response (AID 624134); type: functional
[7] = non-specific 3'UTR reporter inhibition in Clone20-Shn3RL – cell-based, Renilla luciferase, cherry-picked, counter-screen for Shn3 inhibitor project, dose response (AID 624133); type: functional
[8] = luciferase reporter signal suppression in cells – H4 neuroglioma cells, luminescence, dose response (AID 1990); type: functional, cell-based
[9] = Luminescence Cell-Based Dose Response HTS to Identify Inhibitors of 5'UTR Stem-Loop Driven Prion Protein mRNA Translation in H4 Neuroglioblastoma Cells. [Related pubchem assays: 1827 (Project Summary), 1813 (Primary HTS)]; type: functional
[10] = alpha-synuclein stem-loop luciferase translation blockers – H4 neuroglioma cells, luminescence, confirmation (AID 1988); type: functional, cell-based
[11] = Luminescence Cell-Based Dose Retest to Confirm Inhibitors of Cancer Stem Cells. [Related pubchem assays (depositor defined):AID2717, AID2721]; type: functional; details: Homo sapiens
[12] = target: Heat shock protein HSP 90-alpha (Homo sapiens, UniProt P07900); type: functional, organism-based
SN12K1 = experiment: cells; type: functional; details: Homo sapiens
P388 = experiment: cells; type: functional; details: Mus musculus
P388/ADR = experiment: cells; type: functional; details: Mus musculus
[13] = blockers of HIV-1 envelope-mediated cell-cell fusion – cherry-pick, dose response (AID 652057); type: functional, cell-based
[14] = blockers of HIV-1 ZM109 envelope-driven cell-cell fusion – HeLa effector, CEM target cells, luciferase, cherry-pick, dose response (AID 652058); type: functional, cell-based;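 also: luciferase signal from HIV-1 Env mediated cell-cell fusion of effector and target cells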
[15] = HIV-1 AD8 envelope cell-cell fusion blockers – cherry-pick, dose response (AID 652062); type: functional, cell-based;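 also: luciferase signal from cell-cell fusion driven by HIV-1 clade B AD8 Env; potency is for inhibitors of fusion seen as a drop in luminescence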
Cytochrome P450 3A4 [16] = target: T3, Cytochrome P450 3A4
[17] = target: T4, Rac GTPase-activating protein 1 (Homo sapiens, UniProt Q9H0H5); experiment: blockers of MgcRacGAP-driven Rac1 GTP hydrolysis – biochemical, ADP Hunter fluorescence, primary and confirmatory, confirmation (AID 624330); type: functional
T4 sequence (Q9H0H5 whole entry): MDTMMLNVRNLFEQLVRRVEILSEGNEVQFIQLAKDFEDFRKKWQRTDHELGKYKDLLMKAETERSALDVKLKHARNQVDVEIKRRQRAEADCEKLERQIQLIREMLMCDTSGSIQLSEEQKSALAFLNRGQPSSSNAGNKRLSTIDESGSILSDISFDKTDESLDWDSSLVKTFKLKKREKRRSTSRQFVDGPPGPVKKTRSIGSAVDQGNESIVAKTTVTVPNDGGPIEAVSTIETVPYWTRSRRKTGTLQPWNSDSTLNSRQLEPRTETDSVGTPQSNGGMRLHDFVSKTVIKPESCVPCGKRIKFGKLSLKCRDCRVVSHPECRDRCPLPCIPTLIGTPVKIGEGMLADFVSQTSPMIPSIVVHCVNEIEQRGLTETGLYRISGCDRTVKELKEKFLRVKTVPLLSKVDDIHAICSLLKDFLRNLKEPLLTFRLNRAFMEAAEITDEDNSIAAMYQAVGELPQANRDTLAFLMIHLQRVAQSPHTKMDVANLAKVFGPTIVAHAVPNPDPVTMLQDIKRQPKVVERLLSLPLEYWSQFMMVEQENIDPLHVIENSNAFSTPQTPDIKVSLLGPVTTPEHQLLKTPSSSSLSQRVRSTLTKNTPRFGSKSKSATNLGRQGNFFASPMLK

## O=C(NC(=S)NNC(=O)c1ccc(Cl)cc1Cl)c1cccnc1
Leucine aminopeptidase
  IC50: 49.6 µM (active)
[1]
  EC50: 5.27 µM (active)
Streptokinase A
  EC50: > 150 µM (not active)
Streptococcus
  EC50: 96.5 µM (active)

## COCCN(CCOC)c1nc(C)nc2c1nc(-c1ccccc1)n2CCCN(C)C
Cytochrome P450 3A4 [2]
  AC50: 7.94 µM (inconclusive)

## Oc1nc(Nc2nc3ccccc3o2)nc2c1CCCC2
[3]
  EC50: 1.9 µM (active)
[4]
  EC50: 3.87 µM (active)
HEK293
  AC50: 2.05 µM (active)
[5]
  AC50: 7.71 µM (active)
[6]
  AC50: 9.63 µM (active)
[7]
  AC50: 5.26 µM (active)

## CC1(C)C(O)CC(O)[C@]2(C)C1CC(O)[C@]1(C)C2CC[C@@]2(C)C(c3ccoc3)CC3OC312 (some centres not stated)
Cytochrome P450 3A4 [2]
  AC50: 3.16 µM (inconclusive)

## O=c1[nH]c2ccc(S(=O)(=O)N3CCN(Cc4ccccc4)CC3)cc2[nH]c1=O
Leucine aminopeptidase
  IC50: 2.62 µM (active)

## O=S(=O)(Nc1nc2ccccc2nc1NCCN1CCOCC1)c1cccc(Cl)c1
Leucine aminopeptidase
  IC50: 25.9 µM (active)

## O=C(O[C@@H]1Cc2c(O)cc(O)cc2OC1c1ccc(O)c(O)c1)c1cc(O)c(O)c(O)c1 (some centres not stated)
Cytochrome P450 3A4 [2]
  AC50: 25.1 µM (inconclusive)

## CCOC(=O)c1c(NC(=O)C2C3C=CC(C3)C2C(=O)O)sc2c1CC(C)CC2 (configuration not stated)
Leucine aminopeptidase
  IC50: 10.1 µM (active)
[8]
  EC50: > 120 µM (not active)
[9]
  EC50: 60.9 µM (active)
[10]
  EC50: 48.1 µM (active)

## Cc1ccccc1NC(=O)C(Cl)=C(Cl)Cl
[11]
  AC50: 6.73 µM (active)
HEK293
  AC50: 22.1 µM (active)

## COc1ccc(Cc2nnc(NS(=O)(=O)Cc3ccccc3)s2)cc1
Leucine aminopeptidase
  IC50: 6.34 µM (active)

## c1ccc(C(=NNc2nc3ccccc3s2)c2ccccn2)cc1
HEK293
  AC50: 3.05 µM (active)
[12]
  AC50: 16.4 µM (active)

## Nc1cccc2c1C1=NNC(=O)CC1C2 (configuration not stated)
SN12K1
  GI50: > 100 µM (inactive)
P388
  GI50: > 100 µM (inactive)

## c1ccc2c(c1)OCCc1cn[nH]c1-2
P388/ADR
  GI50: > 100 µM (inactive)
SN12K1
  GI50: > 100 µM (inactive)
P388
  GI50: > 100 µM (inactive)

## CSc1nc(CO)c(CO)n1C
P388/ADR
  GI50: > 100 µM (inactive)
SN12K1
  GI50: > 100 µM (inactive)
P388
  GI50: > 100 µM (inactive)

## CSc1nc(NC2OC(CO)C(O)C(O)C2O)c(N)c(=O)[nH]1 (configuration not stated)
P388/ADR
  GI50: > 100 µM (inactive)
SN12K1
  GI50: > 100 µM (inactive)
P388
  GI50: > 100 µM (inactive)

## CNC(=O)SCC(N)C(=O)O (configuration not stated)
P388/ADR
  GI50: 16.8 µM (inactive)
SN12K1
  GI50: 62.2 µM (inactive)
P388
  GI50: 16.5 µM (inactive)

## CC(=O)Oc1cc2c(cc1OC(C)=O)OCC(c1ccccc1)C2 (configuration not stated)
P388/ADR
  GI50: 4.08 µM (inactive)
SN12K1
  GI50: 13.6 µM (inactive)
P388
  GI50: 4.16 µM (inactive)

## COc1ccc2c(c1O)-c1cc(O)cc3c1[C@@H](C2)N(C)CC3
P388/ADR
  GI50: 40.2 µM (inactive)
SN12K1
  GI50: 63.4 µM (inactive)
P388
  GI50: 9.1 µM (inactive)

## COc1ccc(CNC(=O)N(C)C[C@H]2OCc3ccccc3-c3ccccc3C(=O)N([C@H](C)CO)C[C@@H]2C)cc1
[13]
  AC50: 826 nM (active)
[14]
  AC50: 1.16 µM (active)
[15]
  AC50: 3.51 µM (active)

## C[C@H](CO)N1C[C@H](C)[C@H](CN(C)S(=O)(=O)c2ccccc2)Oc2ncc(/C=C/c3ccccc3)cc2C1=O
[14]
  AC50: 3.51 µM (active)

## C[C@H](CO)N1C[C@H](C)[C@H](CN(C)S(=O)(=O)c2ccccc2)Oc2ccc(NS(=O)(=O)c3cccs3)cc2CC1=O
[13]
  AC50: 557 nM (active)
[14]
  AC50: 2.13 µM (active)
[15]
  AC50: 12.6 µM (active)

## C[C@H](CO)N1C[C@H](C)[C@H](CN(C)CC2CC2)Oc2ccc(NC(=O)Nc3ccc4c(c3)OCO4)cc2CC1=O
[13]
  AC50: 4410 nM (active)
[15]
  AC50: 20.5 µM (active)

## COc1cccc(-c2cnc3c(c2)C(=O)N([C@H](C)CO)C[C@H](C)[C@H](CN(C)C(=O)Nc2cccc4ccccc24)O3)c1
[13]
  AC50: < 260 nM (active)
[14]
  AC50: 0.284 µM (active)
[15]
  AC50: 0.407 µM (active)

## COc1ccc2c(=O)cc(-c3ccccc3)oc2c1O
Cytochrome P450 3A4 [2]
  AC50: 39.8 µM (inconclusive)

## CC1=NNC(=O)C1CCC(=O)N/N=C\c1ccccc1[N+](=O)[O-] (configuration not stated)
Leucine aminopeptidase
  IC50: 3.14 µM (active)
Cytochrome P450 3A4 [16]
  AC50: 17.8 µM (inconclusive)

## Cc1cc(=O)oc2c(O)c(O)ccc12 [4-METHYLDAPHNETIN]
[17]
  IC50: 25.9 µM (active)
Cytochrome P450 3A4 [2]
  AC50: 25.1 µM (inconclusive)

## CCCCN(CC)c1c([N+](=O)[O-])cc(C(F)(F)F)cc1[N+](=O)[O-] [BENFLURALIN]
Cytochrome P450 3A4 [2]
  AC50: 15.8 µM (inconclusive)
